Reference: the NIST ThermoML archive (doi:10.1021/je060476j)
Numbers after ± are expanded uncertainties.

What was measured:
[1] = Liquid, Ebulliometric method (Recirculating still)
[2] = refractive index (Na D-line) (dimensionless); conditions: 298.15 K; 101.33 kPa; Liquid; Standard Abbe refractometry

Row | refractive index [2] | vapor or sublimation pressure ([1]; 355.5 K) | vapor or sublimation pressure ([1]; 337.68 K) | SMILES | vapor or sublimation pressure ([1]; 375.14 K)
1 | 1.375 ± 0.0007 | 101.3 ± 0.6 kPa |  | CC(C)O [propan-2-ol] | 
2 | 1.3261 ± 0.0007 |  | 101.3 ± 0.6 kPa | CO [methanol] | 

Row | SMILES | refractive index [2] | vapor or sublimation pressure ([1]; 355.5 K) | vapor or sublimation pressure ([1]; 337.68 K) | vapor or sublimation pressure ([1]; 375.14 K)
3 | CCC(C)(C)O [2-methylbutan-2-ol] | 1.4018 ± 0.0007 |  |  | 101.3 ± 0.6 kPa
